Assay results as given in ChEMBL document CHEMBL1201862, “PubChem BioAssay data set” (2004).
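1) Cells in 96-well plates. 2) Compound, 48 h, 5 concentrations. 3) Linear interpolation between surrounding doses. 4) Unreached endpoint = highest concentration. Abbreviation: GI50, concentration required for 50% inhibition of growth.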 Calls of active or inactive are those of the source. Cut-off read from the data, not from the text of the source: active = GI50 up to about 1.1 µM and inactive = higher.

Tests used:
Assay in all cases: growth of human tumour cells (NCI), 48 h
786-0 = system: 786-0
A498 = system: A498
ACHN = system: ACHN
CAKI-1 = system: CAKI-1
DLD-1 = system: DLD-1
HCC 2998 = system: HCC 2998
HCT-116 = system: HCT-116
HL-60 = system: HL-60
HOP-62 = system: HOP-62
HT-29 = system: HT-29
IGROV-1 = system: IGROV-1
K562 = system: K562
M14 = system: M14
NCI-H460 = system: NCI-H460
OVCAR-3 = system: OVCAR-3
SF-539 = system: SF-539
SK-MEL-2 = system: SK-MEL-2
SNB-75 = system: SNB-75
TK-10 = system: TK-10

Measured: GI50

[O-][S+]1Nc2c(Cl)cc(Cl)c(Cl)c2S1 (stereo not given)
inactive: 786-0 > 100 µM | A498 82.6 µM | ACHN > 100 µM | CAKI-1 41.2 µM | DLD-1 95.7 µM | HCC 2998 > 100 µM | HCT-116 > 100 µM | HL-60 32.7 µM | HOP-62 > 100 µM | HT-29 > 100 µM | IGROV-1 > 100 µM | K562 74.3 µM | M14 > 100 µM | NCI-H460 > 100 µM | OVCAR-3 78.2 µM | SF-539 > 100 µM | SK-MEL-2 > 100 µM | SNB-75 22.7 µM | TK-10 > 100 µM

S=P1(Sc2ccccc2)Oc2ccc3ccccc3c2-c2c(ccc3ccccc23)O1
inactive: A498 > 84.7 µM | CAKI-1 > 83.9 µM | DLD-1 > 100 µM | HCC 2998 > 100 µM | HCT-116 > 100 µM | HL-60 > 77.4 µM | HOP-62 > 100 µM | HT-29 51.5 µM | IGROV-1 > 100 µM | K562 80.7 µM | NCI-H460 > 100 µM | OVCAR-3 70 µM | SF-539 > 100 µM | SK-MEL-2 > 100 µM | SNB-75 > 100 µM

O=C(O)CCC1c2[nH]c3ccccc3c2CCN1Cc1ccccc1 (stereo not given)
inactive: 786-0 > 100 µM | A498 > 100 µM | ACHN > 100 µM | CAKI-1 > 100 µM | DLD-1 > 100 µM | HCC 2998 > 100 µM | HCT-116 > 100 µM | HL-60 > 100 µM | HT-29 > 100 µM | IGROV-1 > 100 µM | K562 > 100 µM | M14 > 100 µM | NCI-H460 > 100 µM | OVCAR-3 > 100 µM | SF-539 > 100 µM | SK-MEL-2 > 100 µM | SNB-75 > 100 µM | TK-10 > 100 µM

COc1ccc(/N=N/c2c(-c3ccccc3)nn(C(=O)CC(=O)Nc3ccc(OC)cc3)c2-c2ccccc2)cc1
inactive: 786-0 48.6 µM | A498 33.2 µM | ACHN 97.3 µM | CAKI-1 > 100 µM | DLD-1 > 100 µM | HCC 2998 > 100 µM | HCT-116 60 µM | HL-60 > 100 µM | HOP-62 23.4 µM | HT-29 > 100 µM | IGROV-1 39.9 µM | K562 27 µM | NCI-H460 > 100 µM | OVCAR-3 > 100 µM | SF-539 18.6 µM | SK-MEL-2 88.3 µM | SNB-75 16 µM | TK-10 52.7 µM

O=C1Nc2cc(F)ccc2C1=O
inactive: 786-0 > 100 µM | A498 > 100 µM | ACHN > 100 µM | CAKI-1 > 100 µM | DLD-1 > 100 µM | HCC 2998 > 100 µM | HL-60 > 100 µM | HOP-62 > 100 µM | HT-29 > 100 µM | IGROV-1 > 100 µM | K562 > 100 µM | M14 > 100 µM | NCI-H460 > 100 µM | SF-539 > 100 µM | SK-MEL-2 > 100 µM | SNB-75 > 100 µM | TK-10 > 100 µM

O=C1NC(=O)C(=O)C(c2nc3ccccc3s2)C1=O
inactive: 786-0 > 100 µM | A498 > 100 µM | ACHN > 100 µM | CAKI-1 > 100 µM | DLD-1 > 100 µM | HCC 2998 > 100 µM | HCT-116 > 100 µM | HL-60 > 100 µM | HOP-62 > 100 µM | HT-29 > 100 µM | IGROV-1 > 100 µM | M14 > 100 µM | NCI-H460 > 100 µM | OVCAR-3 > 100 µM | SF-539 > 100 µM | SK-MEL-2 > 100 µM | SNB-75 > 100 µM | TK-10 > 100 µM
